According to ChEMBL document CHEMBL4507298 (2021):

Columns and labels:
[1] = target: Mitogen-activated protein kinase kinase kinase 4 (Homo sapiens) (UniProt Q9Y6R4); details: Compound concentration 1000.0 nM
[2] = target: Cyclin-dependent kinase-like 3 (Homo sapiens) (UniProt Q8IVW4); details: Compound concentration 1000.0 nM
Sequence of Cyclin-dependent kinase-like 3 (Homo sapiens) (Q8IVW4 whole entry, looked up): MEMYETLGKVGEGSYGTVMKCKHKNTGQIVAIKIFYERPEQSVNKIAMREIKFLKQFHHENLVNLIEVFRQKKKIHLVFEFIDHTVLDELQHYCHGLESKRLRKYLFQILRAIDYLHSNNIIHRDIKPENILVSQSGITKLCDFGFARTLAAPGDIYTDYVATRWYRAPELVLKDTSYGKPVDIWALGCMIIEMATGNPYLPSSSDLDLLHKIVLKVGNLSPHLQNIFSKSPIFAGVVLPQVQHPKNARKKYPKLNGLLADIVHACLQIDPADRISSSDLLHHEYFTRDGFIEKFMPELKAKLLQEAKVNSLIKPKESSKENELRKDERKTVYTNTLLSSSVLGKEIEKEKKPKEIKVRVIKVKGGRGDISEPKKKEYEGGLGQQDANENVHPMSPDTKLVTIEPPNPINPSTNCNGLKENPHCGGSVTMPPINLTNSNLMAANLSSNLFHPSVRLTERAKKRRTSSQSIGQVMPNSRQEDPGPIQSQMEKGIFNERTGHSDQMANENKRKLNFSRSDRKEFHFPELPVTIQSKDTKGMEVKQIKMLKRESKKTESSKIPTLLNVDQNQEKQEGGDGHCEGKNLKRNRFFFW

Sequence of Mitogen-activated protein kinase kinase kinase 4 (Homo sapiens) (Q9Y6R4 whole entry): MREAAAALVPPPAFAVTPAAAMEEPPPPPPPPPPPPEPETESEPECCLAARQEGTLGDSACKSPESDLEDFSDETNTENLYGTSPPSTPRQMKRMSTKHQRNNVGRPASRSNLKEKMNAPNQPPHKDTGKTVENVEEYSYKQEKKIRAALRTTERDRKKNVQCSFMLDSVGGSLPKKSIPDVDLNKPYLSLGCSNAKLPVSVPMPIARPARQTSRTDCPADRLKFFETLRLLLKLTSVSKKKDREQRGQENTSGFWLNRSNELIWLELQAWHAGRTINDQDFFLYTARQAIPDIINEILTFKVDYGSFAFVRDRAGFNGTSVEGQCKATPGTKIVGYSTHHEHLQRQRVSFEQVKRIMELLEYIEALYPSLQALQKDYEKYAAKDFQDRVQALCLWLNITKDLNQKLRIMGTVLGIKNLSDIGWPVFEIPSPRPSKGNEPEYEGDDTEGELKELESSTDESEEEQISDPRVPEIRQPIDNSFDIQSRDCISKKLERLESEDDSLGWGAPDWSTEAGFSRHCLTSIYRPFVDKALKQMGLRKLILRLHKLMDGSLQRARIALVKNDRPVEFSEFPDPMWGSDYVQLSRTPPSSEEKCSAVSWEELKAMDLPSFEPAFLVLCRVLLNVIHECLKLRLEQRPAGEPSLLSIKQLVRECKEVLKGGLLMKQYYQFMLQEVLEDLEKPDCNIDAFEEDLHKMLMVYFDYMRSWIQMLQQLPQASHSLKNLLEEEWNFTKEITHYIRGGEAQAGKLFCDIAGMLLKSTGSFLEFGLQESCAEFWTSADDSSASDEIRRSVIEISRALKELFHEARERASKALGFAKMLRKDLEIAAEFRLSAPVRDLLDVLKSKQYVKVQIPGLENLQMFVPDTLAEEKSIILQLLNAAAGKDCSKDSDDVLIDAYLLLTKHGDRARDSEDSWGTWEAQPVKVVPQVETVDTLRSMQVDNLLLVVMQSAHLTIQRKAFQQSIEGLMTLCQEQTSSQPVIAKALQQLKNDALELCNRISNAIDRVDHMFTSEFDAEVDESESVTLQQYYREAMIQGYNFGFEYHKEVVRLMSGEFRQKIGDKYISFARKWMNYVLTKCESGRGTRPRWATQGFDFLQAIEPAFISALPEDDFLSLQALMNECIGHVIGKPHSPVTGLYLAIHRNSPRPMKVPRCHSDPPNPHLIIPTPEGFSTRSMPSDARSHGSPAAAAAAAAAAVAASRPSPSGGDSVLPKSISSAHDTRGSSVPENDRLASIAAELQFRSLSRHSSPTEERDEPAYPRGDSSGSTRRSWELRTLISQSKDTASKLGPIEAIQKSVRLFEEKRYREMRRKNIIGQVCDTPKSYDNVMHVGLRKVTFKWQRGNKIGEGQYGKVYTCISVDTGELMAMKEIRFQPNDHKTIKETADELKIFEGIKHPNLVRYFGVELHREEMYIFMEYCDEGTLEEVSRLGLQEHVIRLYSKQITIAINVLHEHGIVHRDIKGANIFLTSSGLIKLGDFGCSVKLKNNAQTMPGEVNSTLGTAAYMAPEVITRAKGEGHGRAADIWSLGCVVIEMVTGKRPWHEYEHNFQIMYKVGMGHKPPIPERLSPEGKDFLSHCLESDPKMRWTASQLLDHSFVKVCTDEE

## COc1ccc2cc(OCC3(C(=O)O)CN(C(=O)c4ccc(F)cc4)C3)ccc2c1 [PF-04418948]
[1]
  residual activity: 65%
[2]
  residual activity: 89%
